# Test results published in patent US20210381022A1, “INTEGRATED DRUG DISCOVERY PLATFORM FOR INBORN ERROR OF METABOLISM DISORDERS” (RAMOT AT TEL-AVIV UNIVERSITY LTD., priority 2018, published 2021).
# Legend:
# [1] = tested on: ADA deficient LCLs; assay: LCLs survival assay (XTT), ADA deficient LCLs; type: cell-based, human
# Description: (§1) 24 hours after seeding in 96 round bottom plates in full medium cells were washed once with medium without serum and placed in medium without serum. Following 72 hours of incubation with or without Adenosine (200 ug/ml) and with or without purpurin (2 uM), XTT based cell viability assay was performed. Absorbance was measured with Tecan™ SPARK 10M plate reader.
# (§2) In order to assess the toxic effect of adenosine aggregates, XTT based cell viability assays were performed on healthy and ADA deficient LCLs. Cells went through similar procedure as described above except adenosine was at 300 μg/ml. Survival percentage was calculated as absorbance with adenosine divided by absorbance without adenosine. […] Moreover. 4 out of 5 ADA deficient cell lines display less than 20% survival (FIG. 15B cell lines 7,8,9,11,12).
# [2] = tested on: healthy LCLs; assay: LCLs survival assay (XTT), healthy LCLs; type: cell-based, human; settings: adenosine 300 μg/ml
# Description: as §1, §2
# [3] = tested on: adenosine aggregates in ADA deficient LCLs; assay: Aggregation assay (Proteostat, FACS) on ADA deficient LCLs; type: cell-based, human; settings: for formation of adenosine aggregates (aggregation level, Proteostat staining): patient derived lymphoblastoids, 19 concentrations from 50 μM to 0.003 μM
# Description: 24 hours after seeding in full medium cells were washed with medium without serum and placed in medium without serum. Following 72 hours of incubation with or without Adenosine (A9251 SIGMA) (200 ug/ml), cells were washed with PBS and stained for adenosine aggregates with Proteostat dye (ENZ-51023-KP002). Proteostat concentration was 1:3000 of diluted stock. Following 15 minutes' incubation, cells were washed with PBS and mean fluorescence was measured with FACS.
# Cells were treated with adenosine alone or with adenosine with compounds. Compound activity was tested in 19 concentrations in range from 50 uM to 0.003 uM.
# Readouts: Proteostat Fluorescence intensity was measured with FACS at 2 excitation wavelengths: 488 nm and 550 nm. Emission wavelength was 600 nm.
# 24 hours after seeding in 96 round bottom plates in full medium cells were washed once with medium without serum and placed in medium without serum. Following 72 hours of incubation with or without Adenosine (200 ug/ml) and with or without purpurin (2 uM), cells were washed once with PBS and stained for adenosine aggregates with Proteostat dye (Enzo Life Sciences). Proteostat concentration was 1:4000 of diluted stock. Following 15 minutes incubation, cells were washed with PBS and mean flow cytometry was preformed using Stratedigm S1000EXi and the CellCapTure software (Stratedigm, San Jose, Calif.). Analyses were performed using FlowJo software (TreeStar, version 10).
# For quantification of intracellular adenosine aggregates by FACS analyses, 100,000 cells were seeded in 96 well plates in full medium. After 24 hours, cells were centrifuged, washed once and added with serum free medium with or without Adenosine (200 μg/ml). After incubation of 72 hours cells were washed with PBS and stained for adenosine aggregates with Proteostat dye. Following 15 minutes incubation, cells were washed with PBS and mean fluorescence was measured with FACS. Mean cell fluorescence of every cell line was normalized to its signal without adenosine and data is presented as percentage of aggregates.
# [4] = tested on: adenine fibrils; assay: ThT assay of adenine self-assembly inhibition in vitro; settings: adenine 8 mg/ml in PBS with inhibitor
# Description: Adenine was dissolved at 90° C. in PBS to a final concentration of 8 mg/ml and mixed with the indicated inhibitor, at the indicated concentrations, or with PBS as a control, followed by addition of ThT in PBS. ThT emission data at 480 nm (excitation at 450 nm) were measured at the end point.
# Adenine was dissolved to a final concentration of 8 mg/ml at 90° C. in PBS. The solution was plated on a 96-well black plate and mixed with the inhibitor baicalein at the stated concentration, and with 20 μm ThT (final concentration). Fluorescence (excitation at 450 nm, emission at 480 nm) was recorded over time using a Tecan™ Infinite® 200 PRO plate reader. Data processing was performed using the OriginLab software.
# To further examine if the compounds specifically target the adenosine amyloid-like structures. the compounds were tested using adenine in-vitro aggregation assay. Adenine was self-assembled with and without the inhibitors and stained with the amyloids dye, Thioflavin T (ThT). […] More specifically. Adenosine (30 mg/mL) and guanosine (3 mg/ml) were dissolved in PBS at 90° C., followed by the addition of ThT at final concentration of 20 μM. ThT emission data at 480 nm (excitation at 450 nm) was measured over time. TEM images show elongated adenosine fibrils (10 mg/mL) and guanosine fibrils (1 mg/mL) (FIGS. 34A and 34B, respectively). ThT fluorescence assay of adenosine and guanosine assemblies, are shown by FIGS. 34C, and 34D respectively.
# [5] = tested on: mutant yeast strain; assay: IC50 assay in yeast, rescue from adenine toxicity (HTS growth format); type: cell-based; settings: Saccharomyces cerevisiae, 22 h, read-out: IC50, rescuing mutant yeast strain from adenine toxicity
# Description: Yeast strains were grown over night at 30° C. in SD medium without adenine and were diluted to OD600 0.005. 80 μL of cells were platted on 384 wells plates and incubated at 30° C. for 22 hours with continuous shaking. OD600 was measured using Tecan™ SPARK 10M plate reader.
# Yeast strains were diluted to OD600 0.005. 80 μL of cells were platted on 384 wells plates. Compounds were added with Tecan™ D300 printer at relevant concentrations and plates were incubated at 30° C. for 22 hours with continuous shaking. OD600 was measured using Tecan™ SPARK 10M plate reader. IC50 calculations were performed with CDD software.
# The high-throughput screening was calibrated for 384 plate format using phenotypic assay based on yeast growth rate (measured by OD). The goal was to find hit compounds that will dramatically improve the growth rate as compared to the salvage mutant in the presence of adenine. All relevant controls were used including: mutant yeast grown without adenine addition, WT yeast, and mutant yeast in the presence of adenine with Prazosin as a positive control compound. Potential hits were selected after calculations of growth curve slopes and area under the curve during the logarithmic phase. After hit validation and dose response experiments, hits displaying low IC50 rates were selected implying on a good potential for some of the compounds (FIG. 14).
# [6] = tested on: adenine aggregation in aah1Δapt1Δ cells; assay: Flow cytometry with ProteoStat staining of salvage mutant; type: cell-based, Saccharomyces cerevisiae; settings: adenine in media, TA 0.5 mM
# Description: An amount of 1 mL of logarithmic cells were washed with PBS buffer and sonicated using 15 s pulses at 20% power. For each sample, 2*10^6 cells were resuspended with ProteoStat dye (Enzo Life Sciences) diluted 1:3000 in ProteoStat assay buffer. Cells were incubated for 15 min at room temperature protected from light. Flow cytometry was preformed using Stratedigm S1000EXi and the CellCapTure software (Stratedigm, San Jose, Calif.). Live cells were gated (P1) by forward scatter and side scatter. Fluorescence channels for FITC (530/30) and PE-Cy5 (676/29) were used utilizing a 488 nm laser source. A total of 50,000 events were acquired for each sample. Analyses were performed using FlowJo software (TreeStar, version 10).
# [7] = tested on: aah1Δapt1Δ cells; assay: Confocal microscopy with ProteoStat staining of salvage mutant; type: cell-based, Saccharomyces cerevisiae; settings: adenine in media, TA 0.5 mM
# Description: An amount of 1 mL of logarithmic cells were washed with PBS buffer, sonicated using 15 s pulses at 20% power and resuspended in 50 μL of ProtesoStat dye diluted 1:250 in ProteoStat assay buffer. Cells were incubated for 15 min at room temperature protected from light. 10 μL of each sample was deposited on poly-lysine coated glass slides (Sigma-Aldrich). Cells were imaged using Leica TCS SP8 laser confocal microscope with 63×1.4 NA or 100*1.4 NA oil objectives. To visualize the nuclei, Hoechst (33342; ImmunoChimestry) was used. An argon laser with 488 excitation line was used for ProteoStat (emission wavelength, 500 to 600 nm), and a 405 UV laser was used to excite Hoechst fluorescence (emission wavelength, 415 to 450 nm).
# [8] = tested on: wild-type strain; assay: Yeast growth assay of wild-type strain; type: cell-based, Saccharomyces cerevisiae; settings: 13 mg/L cysteine, 80 mg/L homocysteine, 0.3 mM TA
# Description: (§3) Strains were grown over night at 30° C. in SD medium without adenine. For spotting assays, strains were diluted to 6.25*10^7 cells/mL and were then 5-fold serially diluted and spotted on SD media with the indicated concentrations of adenine or TA (Sigma-Aldrich). Plates were incubated at 30° C. for 2 days. […] For OD600 measurements, strains were diluted to OD600 0.01, 200 μL of cells were platted on 96 wells plates and incubated at 30° C. for 25 hours with continuous shaking. OD600 was measured using Tecan™ SPARK 10M plate reader.
# [9] = tested on: aah1Δapt1Δ cells; assay: LC-MS detection of TA and adenine inside cells; type: cell-based, Saccharomyces cerevisiae; settings: cells grown in SD medium containing adenine and TA
# Description: 100 ml of cells at the logarithmic phase were centrifuged and washed three times with PBS. 1 ml of the growth medium and of each wash were collected for LC-MS analysis. After the third wash, the pellet was resuspended in PBS together with acid-washed glass beads. Tubes were vortexed for 45 minutes in 4° C. using disruptor-genie. Cell debris and soluble material were separated by centrifugation. Both fractions as well as the medium and washes were analyzed by MS. The pellet was resuspended in 200 μl DMSO, heated for 5 minutes at 85° C. and sonicated for 5 minutes at 40° C. The lysis mixture was centrifuged at 6000 rpm for 10 minutes. 150 μl of the lysate were transferred to a Waters 96 well ACQUITY collection plate for LC-MS analysis. 20 μl of each sample were injected to Waters Autopurification system analytical module equipped with SQD2 MS detector at the following conditions: a. LC: Waters XSelect Peptide CSH C18 column (5 μm, 4.6 mm×100 mm) using a 10 minute gradient from 95:5 Water:acetonitrile (both with 0.1% formic acid) to acetonitrile (0.1% formic acid); b. MS: acquisition parameters were optimized in order to select the proper ion for selected ion monitoring (SIR) experiments.
# [10] = tested on: aah1Δapt1Δ strain; assay: Yeast growth assay of adenine salvage mutant with adenine feeding; type: cell-based, Saccharomyces cerevisiae
# Description: as §3
# For the percentage of growth analysis (FIG. 10B and FIG. 13A), OD600 was measured when cells reached log phase. The percentage of growth represents the growth with TA compared to the growth without TA.
# [11] = tested on: adenine fibrils; settings: previously demonstrated, reference [4]; cited from earlier work
# [12] = tested on: phenylalanine assemblies; settings: reference [4]; cited from earlier work
# [13] = tested on: cys4Δ strain; assay: Yeast growth assay of cys4Δ mutant with homocysteine; type: cell-based, Saccharomyces cerevisiae; settings: 13 mg/L cysteine, 80 mg/L homocysteine, 0.3 mM TA
# Description: FIG. 27E: WT and cys4Δ strains diluted to OD600 0.01 were grown in SD media containing 13 mg/L cysteine and 80 mg/L homocysteine in the under the indicated conditions. 0.3 mM TA was added to the samples at different OD600. The percentage of growth represents the growth the indicated condition compared to the growth of WT without TA. *P<0.05 (Student's t-test).
# Homocystinuria results from cystathionine beta synthase (CBS) deficiency, leading to excess of Hcy. A knockout mutation in CYS4, the highly-conserved functional yeast ortholog of the human cystathionine beta synthase (CBS) known to be essential for Hcy salvage, was therefore generated. Due to the contribution of this enzyme to cysteine biosynthesis, it was first shown that its absence confers cysteine dependence (FIG. 27A). […] To examine whether the observed toxicity was associated with the in vivo formation of amyloid-like assemblies, the cells were stained with the amyloid-specific fluorescent dye ProteoStat which allows to detect intracellular amyloid fibrils. […] Next, to further establish the amyloid-like nature of the aggregates, the fibrillation-modifying polyphenolic compound tannic acid (TA) was used (FIG. 27E).
smiles,measurement,setting,value
"Nc1ncnc2c1ncn2[C@@H]1O[C@H](CO)[C@@H](O)[C@H]1O [adenosine, Adenosine]",survival of ADA deficient LCLs in the presence of adenosine,"[1]; adenosine 300 μg/ml, XTT",below 40%
same,"survival, 4 out of 5 ADA deficient cell lines","[1]; adenosine 300 μg/ml, XTT",less than 20%
same,survival of healthy LCLs in the presence of adenosine,[2],above 70%
same,Proteostat staining of ADA deficient LCLs compared to healthy LCLs,"[3]; adenosine 200 μg/ml, 72 hours",2-3 fold
"O=C1c2ccccc2C(=O)c2c(O)c(O)cc(O)c21 [Purpurin, 1,2,4-trihydroxyanthracene-9,10-dione]",cell viability (XTT),"[1]; 2 μM Purpurin, with adenosine, 72 hours, vs control LCLs",substantial improvement in cell viability
same,"amyloids staining (ThT, end point)",[4],significantly reduced the amyloids staining
same,Proteostat staining of adenosine aggregates,"[3]; 2 μM Purpurin, adenosine 200 μg/ml, 72 hours",reduced to significantly lower levels
same,"formation of adenosine aggregates (aggregation level, Proteostat staining)",[3],significantly reduce the aggregation level
same,"formation of adenosine aggregates (aggregation level, Proteostat staining)",[3]; listed as purpurin,inhibited the formation of these aggregates
same,IC50,[5],14.4 nM
"O=C(OC[C@H]1O[C@@H](OC(=O)c2cc(O)c(O)c(OC(=O)c3cc(O)c(O)c(O)c3)c2)[C@H](OC(=O)c2cc(O)c(O)c(OC(=O)c3cc(O)c(O)c(O)c3)c2)[C@@H](OC(=O)c2cc(O)c(O)c(OC(=O)c3cc(O)c(O)c(O)c3)c2)[C@@H]1OC(=O)c1cc(O)c(O)c(OC(=O)c2cc(O)c(O)c(O)c2)c1)c1cc(O)c(O)c(OC(=O)c2cc(O)c(O)c(O)c2)c1 [TA, Tannic acid]","metabolite aggregation (ProteoStat, flow cytometry)",[6],decrease in metabolite aggregation
same,ProteoStat stained dots (confocal microscopy),[7],absence of the stained dots
same,growth of wild-type strain,[8],no effect was observed
same,presence inside the cell (LC-MS),[9],detected inside the cell
same,"formation of adenine amyloid-like assemblies / growth, inhibitor added at earlier time points",[10]; 0.5 mM TA added at earlier time points of yeast growth,hinder the formation of adenine amyloid-like assemblies
same,"growth, inhibitor added at later stages",[10]; 0.5 mM TA added at later stages of yeast growth,no effect on their growth
same,cell growth of the salvage mutant,"[10]; in the presence of adenine, TA added to the yeast media at various concentrations",clearly improved cell growth of the salvage mutant in a dose-dependent manner
same,adenine self-assembly in vitro,[11],inhibition of adenine self-assembly in vitro
same,phenylalanine aggregation and cytotoxicity of the assemblies in vitro,[12],counteract
same,growth inhibition of the salvage mutant strain in the presence of Hcy,[13],significantly ameliorated the growth inhibition
